We go through 4 compounds from patent US20250064761A1, “SUBSTITUTED BENZAMIDES AND THEIR USE IN THERAPY” (PHARMACYL AB, priority 2018, published 2025).

Assay [1] relates to LPS-induced TNF-production in RAW264.7 murine macrophage cells. Put plainly: Suppression of LPS-induced TNF-α production in macrophages (ELISA). The settings on record: Mus musculus, RAW264.7, read-out: % Inhibition of TNF-production. The assay is classed as cell-based. As for the experimental part: The RAW264.7 macrophage line was maintained in DMEM supplemented with 5% FBS at 37° C. in a 5% CO2-humidified air environment. The RAW264.7 cells were seeded in 96-well plates at a density of 1×10^5/ml and a volume of 200 μl/well. The cells were incubated for 24 h in medium supplemented with 10% FBS and were then pre-incubated with or without the indicated concentrations of test substances for 2 h prior to the addition of LPS (1 μg/ml). The supernatants were subsequently harvested at various time points and production of the proinflammatory cytokine TNF-α in the culture medium was determined using a commercially available enzyme-linked immunosorbent assay (ELISA) kit according to the manufacturer's protocol.
Effects of some AABZs of the invention at 1 mM on LPS-induced TNF-production in RAW264.7 murine macrophage cells are shown in Table 2.
In general terms: In an ELISA, binding on a coated surface is turned into a signal by an enzyme label.

Assay [2] relates to DSS induced colitis in Balb/c mice. Put plainly: Dextran sulfate sodium (DSS) induced inflammatory bowel disease in mice. The assay is classed as in vivo. Also on record: key to Blood in the Stool score LS means ± SE: 0 = normal, 2 = Hemoccult+, 4 = gross bleeding; key to Disease Activity Index LS means ± SE: sum of stool, blood and weight-loss scores (each 0-4), max 12. The method, then:
The experiment was performed using 6- to 8-week old female Balb/c mice after a one-week acclimatization period. The mice weighed 18-25 g, were purchased from Taconic (Denmark) and were maintained in a temperature and light-controlled facility with free access to standard rodent chow and water. Mice were randomized to the respective groups five days before start of treatment and were kept 5 to 6 animals […] per cage. […] The DSS intake was assessed daily. SASP (from Sigma-Aldrich, Sweden) was first dissolved in 0.2 M sodium hydroxide (NaOH) at a concentration higher than the required final concentration. Phosphate buffered saline (PBS) was added to the desired concentration and the pH was adjusted to 7.5-8.0 with NaOH or hydrochloric acid. SASP remained completely dissolved at this pH. Cpd A was dissolved in PBS to the desired concentration. All animal groups had free access to 5% DSS water solution for the entire test period. Treatments were administered from day 0 to day 5, either orally by gavage (SASP) or intraperitoneally (Cpd A), and in an administration volume of 5 ml/kg, twice daily with approximately an 8-hour interval. The control group (DSS only) received water (0.2 ml) orally twice daily.
The parameters recorded in the experiment were stool consistency (0, normal; 2, loose stools; 4, watery diarrhoea), occurrence of blood in the stool (0, normal; 2, Hemoccult+; 4, gross bleeding), and body weight loss (0, none; 1, 1-5%; 2, 5-10%; 3, 10-20%; 4, >20%). Disease activity index (DAI) was calculated by summarizing the scores of these three parameters. Also the colon length and the colonic content of myeloperoxidase (MPO) were recorded. Data was statistically evaluated with analysis of variance (ANOVA). Least-squares means (LS means), and standard error (SE) of LS means were calculated.

The next assay concerns the target dopamine D2 receptor (Rattus norvegicus, UniProt P61169). The assay is classed as binding. The settings on record: in vitro; 125I-spiperone.
In assay [3] the test system is collagen-induced arthritis in DBA/1 mice. In words: Collagen-induced arthritis. Format: in vivo. The settings on record: 200 mg/kg/day in drinking water from day 14 to day 49. As for the experimental part: The experiment was performed using 9-week old male DBA/1 mice after a two-week acclimatization period. The mice were purchased from B&M (Denmark), and were maintained in a temperature and light-controlled facility with free access to standard rodent chow and water. Following the acclimatization period, the mice (10 per treatment group) were anesthesized with Enflurane and immunized intradermally in the base of the tail with […] of a 1:1 emulsion consisting of Freund's Complete Adjuvant H37Ra (Difco) and 2 mg/mL bovine type II collagen (Elastin Products, Owensville, MO) in 0.1 M acetic acid. On day 14 post-immunization, the mice were given ad lib access to drinking water containing Cpd A, with treatment continuing daily until termination of the experiment (day 49). The Cpd A intake was monitored by weighing the drinking bottles at the water renewal twice per week. The control group received water ad lib.
The mice were monitored for clinical signs of arthritis three times a week from immunization to day 49. […] The four measurements were summed for each mouse, and group averages were calculated. Mice with a score >12 were sacrificed. In the scoring protocol, the last observation carried forward (LOCF) method was used.
Mean onset day was defined as the mean day of onset in mice being affected. […]
Statistical significance was determined using Mann-Whitney Rank Sum test. […]

Structures can show the parent of a compound that is named as a salt.

Chain of dopamine D2 receptor (P61169 whole entry, looked up): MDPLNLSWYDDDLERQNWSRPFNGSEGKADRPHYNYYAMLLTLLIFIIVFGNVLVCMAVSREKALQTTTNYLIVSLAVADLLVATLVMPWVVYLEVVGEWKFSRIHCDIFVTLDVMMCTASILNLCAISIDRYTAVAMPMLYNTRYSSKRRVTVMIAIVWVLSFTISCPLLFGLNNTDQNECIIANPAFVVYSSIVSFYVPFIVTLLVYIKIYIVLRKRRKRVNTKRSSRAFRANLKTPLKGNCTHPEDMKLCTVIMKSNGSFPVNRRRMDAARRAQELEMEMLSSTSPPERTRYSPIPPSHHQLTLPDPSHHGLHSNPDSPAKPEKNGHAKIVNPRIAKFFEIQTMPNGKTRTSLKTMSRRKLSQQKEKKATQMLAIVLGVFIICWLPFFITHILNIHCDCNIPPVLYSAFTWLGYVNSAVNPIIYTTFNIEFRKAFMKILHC

A word on the inhibition: it is the percentage by which the read-out fell short of the control. As for `CCN(CC)CCNC(=O)c1ccc(NC(=O)C(C)C)c(Cl)c1` [4-Isobutyrylamino-3-chloro-N-[2-(diethylamino)ethyl]benzamide hydrochloride], in assay [1], the inhibition at 1000 µM was determined as 63%.
`CCC(=O)Nc1ccc(C(=O)NCCN(CC)CC)cc1Cl` [4-Propanoylamino-3-chloro-N-[2-(diethylamino)ethyl]benzamide hydrochloride]: in assay [1], the inhibition at 1000 µM stood at 50%.
Turning to `CCN(CC)CCNC(=O)c1ccc(NC(C)=O)c(Cl)c1` [Cpd A, 4-Acetamido-3-chloro-N-[2-(diethylamino)ethyl]benzamide hydrochloride], the “Disease Activity Index score reduction by Cpd A versus SASP treatment” value in assay [2] (Cpd A 100 mg/kg/day bid ip vs SASP 40 mg/kg/day bid po, p<0.016) turned out to be 60%. In assay [2] (day 5, 50 mg/kg/day bid ip), the “Blood in the Stool Percent Reduction of Score vs control” value (shortened to “Blood in the Stool Percent Reduction”) was found to be 9%, the “Blood in the Stool score LS means ± SE” value was determined as 2.2 ± 0.3, the “Disease Activity Index LS means ± SE” value came to 6.4 ± 0.5 and the “Disease Activity Index Percent Reduction of Score vs control” value (from here on “Disease Activity Index Percent Reduction”) is listed as 7%. In addition, in assay [2] (day 5, 100 mg/kg/day bid ip), the “Blood in the Stool Percent Reduction” value was found to be 96%, the “Disease Activity Index LS means ± SE” value was determined as 1.7 ± 1.0 and the “Disease Activity Index Percent Reduction” value came out at 75%. The “Blood in the Stool score LS means ± SE” value in assay [2] (day 5, 100 mg/kg/day bid ip, hydrochloride) is on record as 0.1±0.5. Besides, the “affinity for the dopamine D2 subtype receptor (in words)” value at dopamine D2 receptor is given as “very low affinity”. In addition, the “delay of mean onset of disease compared to the control group” value in assay [3] (p=0.02) is 5.8 days. Also, the “reduction of severity of arthritis score compared to the control group” value in assay [3] (p=0.05) was 1.6. Besides, the inhibition at 1000 µM in assay [1] was found to be 45%.
As for `O=C(O)c1cc(/N=N/c2ccc(S(=O)(=O)Nc3ccccn3)cc2)ccc1O` [SASP, sulfasalazine, reference compound], in assay [2] (day 3, 40 mg/kg/day bid po), the “frequency of diarrhoea (stool consistency score of 2 and 4)” value was found to be 8%. In assay [2] (day 5, 40 mg/kg/day bid po), the “Blood in the Stool Percent Reduction” value is 42%, the “Blood in the Stool score LS means ± SE” value was found to be 1.4±0.2, the “Disease Activity Index LS means ± SE” value is on record as 4.4 ± 0.4 and the “Disease Activity Index Percent Reduction” value was 36%. Further, the “frequency of diarrhoea (stool consistency score of 2 and 4)” value in assay [2] (day 5, 40 mg/kg/day bid po) was 71%.
